From patent US12122761B2, “2-azaspiro[3.4]octane derivatives as M4 agonists” (NOVARTIS AG, priority 2019, dated 2024)

Target: T1, human cloned CHRM2 receptor (M2_CHO cells) (Homo sapiens, UniProt P08172)
T1 construct: expressed in transfected cells; host or cells: CHO-K1
T1 sequence (P08172 1-466): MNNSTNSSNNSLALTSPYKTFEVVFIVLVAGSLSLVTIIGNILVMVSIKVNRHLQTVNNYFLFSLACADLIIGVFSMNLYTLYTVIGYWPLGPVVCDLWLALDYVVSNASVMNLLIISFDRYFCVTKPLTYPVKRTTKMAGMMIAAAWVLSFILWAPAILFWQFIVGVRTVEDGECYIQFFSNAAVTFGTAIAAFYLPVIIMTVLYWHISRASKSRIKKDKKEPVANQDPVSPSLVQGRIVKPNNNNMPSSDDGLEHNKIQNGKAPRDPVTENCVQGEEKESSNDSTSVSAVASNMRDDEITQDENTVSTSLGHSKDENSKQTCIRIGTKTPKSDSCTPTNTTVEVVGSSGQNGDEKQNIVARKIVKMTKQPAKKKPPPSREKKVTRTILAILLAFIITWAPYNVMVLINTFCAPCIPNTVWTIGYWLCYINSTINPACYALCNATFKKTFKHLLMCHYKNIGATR
Assay: CHRM2 Ca++ Flux Assay (agonist mode, FDSS 7000EX)
Assay type: cell-based
Conditions: Percent Activity measured to EC100 of Carbachol
Method in brief: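 Agonist-mode Ca++ flux in CHO-K1 cells stably expressing human CHRM2, dye-loaded, then held 60 min at room temperature in buffer with 20 μM ATP before compound addition; traces read over 3 minutes. Four-parameter fit of triplicate wells; percent activity relative to Carbachol EC100.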

Row | Structure (SMILES) | M2 FDSS PA
1 | Fc1ccc(OC2CC3(COC3)C2)c(C2CCN([C@@H]3CCC4(C3)CN(c3cncnc3)C4)CC2)c1 (single isomer, unassigned) [Example 10F, (R)-6-(4-(2-((2-oxaspiro[3.3]heptan-6-yl)oxy)-5-fluorophenyl)piperidin-1-yl)-2-(pyrimidin-5-yl)-2-azaspiro[3.4]octane or (S)-6-(4-(2-((2-oxaspiro[3.3]heptan-6-yl)oxy)-5-fluorophenyl)piperidin-1-yl)-2-(pyrimidin-5-yl)-2-azaspiro[3.4]octane] | 0%
2 | Fc1ccc(OC2CCOCC2)c(C2CCN([C@@H]3CCC4(C3)CN(c3cncnc3)C4)CC2)c1 (single isomer, unassigned) [Example 10G, (R)-6-(4-(5-fluoro-2-((tetrahydro-2H-pyran-4-yl)oxy)phenyl)piperidin-1-yl)-2-(pyrimidin-5-yl)-2-azaspiro[3.4]octane or (S)-6-(4-(5-fluoro-2-((tetrahydro-2H-pyran-4-yl)oxy)phenyl)piperidin-1-yl)-2-(pyrimidin-5-yl)-2-azaspiro[3.4]octane] | 0%
3 | Fc1ccc(OC2CCOCC2)c(C2CCN([C@@H]3CCC4(C3)CN(c3cncnc3)C4)CC2)c1 (single isomer, unassigned) [Example 10H, (R)-6-(4-(5-fluoro-2-((tetrahydro-2H-pyran-4-yl)oxy)phenyl)piperidin-1-yl)-2-(pyrimidin-5-yl)-2-azaspiro[3.4]octane or (S)-6-(4-(5-fluoro-2-((tetrahydro-2H-pyran-4-yl)oxy)phenyl)piperidin-1-yl)-2-(pyrimidin-5-yl)-2-azaspiro[3.4]octane] | 0%
4 | COc1ccccc1C1CCN([C@H]2CCC3(C2)CN(c2ncco2)C3)CC1 (single isomer, unassigned) [Example 10I, S)-2-(6-(4-(2-methoxyphenyl)piperidin-1-yl)-2-azaspiro[3.4]octan-2-yl)oxazole or (R)-2-(6-(4-(2-methoxyphenyl)piperidin-1-yl)-2-azaspiro[3.4]octan-2-yl)oxazole] | 0%
5 | COc1ccccc1C1CCN([C@H]2CCC3(C2)CN(c2ncco2)C3)CC1 (single isomer, unassigned) [Example 10J, (S)-2-(6-(4-(2-methoxyphenyl)piperidin-1-yl)-2-azaspiro[3.4]octan-2-yl)oxazole or (R)-2-(6-(4-(2-methoxyphenyl)piperidin-1-yl)-2-azaspiro[3.4]octan-2-yl)oxazole] | 42%
6 | FC(F)(F)Oc1ccccc1C1CCN([C@@H]2CCC3(C2)CN(c2ncco2)C3)CC1 (single isomer, unassigned) [Example 10K, (R)-2-(6-(4-(2-(trifluoromethoxy)phenyl)piperidin-1-yl)-2-azaspiro[3.4]octan-2-yl)oxazole or (S)-2-(6-(4-(2-(trifluoromethoxy)phenyl)piperidin-1-yl)-2-azaspiro[3.4]octan-2-yl)oxazole] | 0%
7 | FC(F)(F)Oc1ccccc1C1CCN([C@@H]2CCC3(C2)CN(c2ncco2)C3)CC1 (single isomer, unassigned) [Example 10L, (R)-2-(6-(4-(2-(trifluoromethoxy)phenyl)piperidin-1-yl)-2-azaspiro[3.4]octan-2-yl)oxazole or (S)-2-(6-(4-(2-(trifluoromethoxy)phenyl)piperidin-1-yl)-2-azaspiro[3.4]octan-2-yl)oxazole] | 44%
8 | FC(F)(F)Oc1ccccc1C1CCN([C@@H]2CCC3(C2)CN(c2nncs2)C3)CC1 (single isomer, unassigned) [Example 10M, (R)-2-(6-(4-(2-(trifluoromethoxy)phenyl)piperidin-1-yl)-2-azaspiro[3.4]octan-2-yl)-1,3,4-thiadiazole or (S)-2-(6-(4-(2-(trifluoromethoxy)phenyl)piperidin-1-yl)-2-azaspiro[3.4]octan-2-yl)-1,3,4-thiadiazole] | 0%
9 | FC(F)(F)Oc1ccccc1C1CCN([C@@H]2CCC3(C2)CN(c2nncs2)C3)CC1 (single isomer, unassigned) [Example 10N, (R)-2-(6-(4-(2-(trifluoromethoxy)phenyl)piperidin-1-yl)-2-azaspiro[3.4]octan-2-yl)-1,3,4-thiadiazole or (S)-2-(6-(4-(2-(trifluoromethoxy)phenyl)piperidin-1-yl)-2-azaspiro[3.4]octan-2-yl)-1,3,4-thiadiazole] | 28%
10 | FC(F)Oc1ccccc1C1CCN([C@@H]2CCC3(C2)CN(c2nncs2)C3)CC1 (single isomer, unassigned) [Example 10O, (R)-2-(6-(4-(2-(difluoromethoxy)phenyl)piperidin-1-yl)-2-azaspiro[3.4]octan-2-yl)-1,3,4-thiadiazole or (S)-2-(6-(4-(2-(difluoromethoxy)phenyl)piperidin-1-yl)-2-azaspiro[3.4]octan-2-yl)-1,3,4-thiadiazole] | 17%
11 | COc1ccccc1C1CCN([C@@H]2CCC3(C2)CN(c2ncns2)C3)CC1 (single isomer, unassigned) [Example 10Q, (R)-5-(6-(4-(2-methoxyphenyl)piperidin-1-yl)-2-azaspiro[3.4]octan-2-yl)-1,2,4-thiadiazole or (S)-5-(6-(4-(2-methoxyphenyl)piperidin-1-yl)-2-azaspiro[3.4]octan-2-yl)-1,2,4-thiadiazole] | 18%
12 | COc1ccccc1C1CCN([C@@H]2CCC3(C2)CN(c2ncns2)C3)CC1 (single isomer, unassigned) [Example 10R, (R)-5-(6-(4-(2-methoxyphenyl)piperidin-1-yl)-2-azaspiro[3.4]octan-2-yl)-1,2,4-thiadiazole or (S)-5-(6-(4-(2-methoxyphenyl)piperidin-1-yl)-2-azaspiro[3.4]octan-2-yl)-1,2,4-thiadiazole] | 0%
13 | O=C(N1CC2(CC[C@@H](N3CCC(c4cc(F)ccc4OC4CC5(COC5)C4)CC3)C2)C1)C1(F)CC1 (single isomer, unassigned) [Example 11A, (R)-(6-(4-(2-((2-oxaspiro[3.3]heptan-6-yl)oxy)-5-fluorophenyl)piperidin-1-yl)-2-azaspiro[3.4]octan-2-yl)(1-fluorocyclopropyl)methanone or (S)-(6-(4-(2-((2-oxaspiro[3.3]heptan-6-yl)oxy)-5-fluorophenyl)piperidin-1-yl)-2-azaspiro[3.4]octan-2-yl)(1-fluorocyclopropyl)methanone] | 0%
14 | O=C(N1CC2(CC[C@@H](N3CCC(c4cc(F)ccc4OC4CC5(COC5)C4)CC3)C2)C1)C1(F)CC1 (single isomer, unassigned) [Example 11B, (R)-(6-(4-(2-((2-oxaspiro[3.3]heptan-6-yl)oxy)-5-fluorophenyl)piperidin-1-yl)-2-azaspiro[3.4]octan-2-yl)(1-fluorocyclopropyl)methanone or (S)-(6-(4-(2-((2-oxaspiro[3.3]heptan-6-yl)oxy)-5-fluorophenyl)piperidin-1-yl)-2-azaspiro[3.4]octan-2-yl)(1-fluorocyclopropyl)methanone] | 0%

Same assay, conditions: agonist mode; geometric mean if tested more than once; read-out: M2 FDSS EC50

Row | Structure (SMILES) | EC50
15 | FC(F)(F)Oc1ccccc1C1CCN([C@@H]2CCC3(C2)CN(c2ncco2)C3)CC1 (single isomer, unassigned) [Example 10L, (R)-2-(6-(4-(2-(trifluoromethoxy)phenyl)piperidin-1-yl)-2-azaspiro[3.4]octan-2-yl)oxazole or (S)-2-(6-(4-(2-(trifluoromethoxy)phenyl)piperidin-1-yl)-2-azaspiro[3.4]octan-2-yl)oxazole] | 13.2 µM
16 | FC(F)(F)Oc1ccccc1C1CCN([C@@H]2CCC3(C2)CN(c2nncs2)C3)CC1 (single isomer, unassigned) [Example 10M, (R)-2-(6-(4-(2-(trifluoromethoxy)phenyl)piperidin-1-yl)-2-azaspiro[3.4]octan-2-yl)-1,3,4-thiadiazole or (S)-2-(6-(4-(2-(trifluoromethoxy)phenyl)piperidin-1-yl)-2-azaspiro[3.4]octan-2-yl)-1,3,4-thiadiazole] | > 25 µM
